Reference: patent US20190083521A1, “COMBINATION THERAPY FOR TREATING CANCER” (Epizyme, Inc., priority 2014, published 2019)

Tests used:
Assay type in all cases: cell-based, human
MOLM-13 cells = test: Example 6 combination screen: 300 nM EPZ-5676 pre-treatment, second compound 72 h, ATPLite, IC50 shift; conditions: 300 nM EPZ-5676 pre-treatment (4 + 3 days) vs DMSO, then 2nd compound 72 h, IC50 shift of 2nd compound
Method: (§1) Cells were then equilibrated in incubators for 24 hours before treatment with a second compound. Treated assay plates were incubated with a second compound for 72 hours. After this time, plates were developed for endpoint analysis using ATPLite to measure ATP content, which is used as an indicator of cell viability.
(§2) “N/D” means that IC50 of the second compound could not be determined for both conditions.

MV4-11 (MLL-AF4) cells = test: Combination proliferation assay with Compound A2 (CellTiter-Glo, Chou-Talalay CI); conditions: for Combination effect with Compound A2 (Table 5) / Combination effect with Compound A2: MV4-11; for Combination effect with Compound A2 (Table 5) / Combination effect with Compound A2 (Table 4): 7 Day Cotreatment Model; for Combination effect with Compound A2 (Table 4): MV4-11 (MLL-AF4); for Combination effect with Compound A2: 7 Day Cotreatment (Example 1); for Combination effect with Compound A2 (Table 2): MV4-11 MLL-AF4
Method: (§3) The acute myelogenous leukemia cell lines MV4-11 (MLL-AF4) and MOLM-13 (MLL-AF9) were obtained from American Type Culture Collection (ATCC; Rockville, Md.) and Deutsche Sammlung von Mikroorganismen and Zellkulturen (DSMZ; Braunschweig, Germany) respectively.
(§4) Studies were performed using MLL-rearranged cell lines in vitro to evaluate the anti-proliferative effect of a combination of two agents together on cell growth. Initial proliferation studies were performed to determine the IC50 of a given compound in each cell line. The cell counts were measured by ATP quantitation using the Promega Cell Titer Glo kit and luminescence values corresponded to the amount of ATP in a given well.
(§5) Compounds were evaluated for synergy in the co-treatment phase by testing the compounds in a concentration range which was bracketed around their IC50 values. The compounds were plated to a 96 well plate in a matrix format (FIG. 3) which includes increasing concentrations of each drug in the combination in a constant ratio, in addition to the effect of each compound alone in the study. Cells were seeded and grown in the log-linear phase for 3 or 7 days in the co-treatment phase. Minimum inhibition (DMSO alone) controls were used in each plate to calculate fraction affected (Fa) of a test well. DMSO concentration was kept at 0.1% v/v.
(§6) The drug combination analysis was performed utilizing the Chou-Talalay method Synergy was determined using the software package Calcusyn by Biosoft. The combination index (CI) is a quantitative term used to describe the level of synergy or antagonism in a given test system. A combination index less than one indicates synergy, and a CI greater than one indicates antagonism. Further, strong synergism is achieved when the CI value falls below 0.3.
(§7) The HP-D300 digital dispenser (Tecan) was used to dispense compounds in a combinatorial matrix. […] Cell viability was measured via ATP content using CellTiter-Glo® (Promega).
(§8) Viability was determined using CellTiter-Glo® (Promega).
(§9) Proliferation studies were performed using MOLM-13, MV4-11 and SKM-1 cell lines in vitro to evaluate the cancer cell killing effect of a combination of two agents together on cell growth. Initial proliferation studies were performed to determine the IC50 values of a given compound in each cell line. The cell counts were measured by ATP quantitation using the Promega Cell Titer Glo kit and luminescence values correspond to the amount of ATP in a given well.
(§10) These studies were performed to evaluate both the combinatorial effect of compounds on cell killing and the durability of the effect by washing out one of the agents.
(§11) Compounds evaluated for synergy in the co-treatment phase were tested in a range which was bracketed around the IC50's. The compounds were plated to a 96 well plate in a matrix format which includes increasing concentrations of each drug in the combination in a constant ratio, in addition to the effect of each compound alone in the study. Cells were seeded and grown in the log-linear phase for 3 or 7 days in the cotreatment phase. Maximum and minimum inhibition (DMSO alone) controls were used in each plate to calculate fraction affected (Fa) of a test well. DMSO concentration was kept at 0.1% v/v. The drug combination analysis was performed utilizing the Chou-Talalay method. Synergy was determined using the software package Calcusyn by Biosoft. The combination index (CI) is the term used to describe the level of synergy or antagonism in a given test system. A combination index less than one indicates synergy, and a CI greater than one indicates antagonism.
The drug combination analysis was performed using the Chou-Talalay method. Graphs representing values of combination index (CI) versus Fractional effect (Fa) known as Fa-CI plots were generated and synergy was evaluated. Drug synergy was statistically defined by CI values less than 1, antagonism by CI>1 and additive effect by CI equal to 1.

MOLM-13 (MLL-AF9) cells = test: as above; conditions: for Combination effect with Compound A2 (Table 4): MOLM-13 (MLL-AF9), 7 Day Cotreatment Model; for Combination effect with Compound A2: MOLM-13, 7 Day Cotreatment (Example 1); for Combination effect with Compound A2 (Table 2): MOLM-13 MLL-AF9
Method: as §3, §4, §5, §6, §7, §8
Cell viability was measured via ATP content using CellTiter-Glo® (Promega).
as §9, §10, §11
The drug combination analysis was performed using the Chou-Talalay method. Graphs representing values of combination index (CI) versus Fractional effect (Fa) known as Fa-CI plots were generated and synergy was evaluated.

SKM-1 cells = test: Example 6 combination screen: 300 nM EPZ-5676 pre-treatment, second compound 72 h, ATPLite, IC50 shift; conditions: SKM-1 cells; 300 nM EPZ-5676 pre-treatment (4 + 3 days) vs DMSO, then 2nd compound 72 h; ATPLite; IC50 shift of 2nd compound
Method: as §1, §2

c1ccc2c(CCNc3ccc(Nc4ccncc4)cc3)c[nH]c2c1 [JNJ 26854165]
Summary of Combination Studies: MOLM-13 (MOLM-13 cells): Synergy (considered synergistic if the IC50 value of the second compound decreased by 2-fold or more when EPZ-5676 was added as compared to the DMSO control)

CC[C@@H]1C(=O)N(C)c2cnc(Nc3ccc(C(=O)N[C@H]4CC[C@H](N5CCN(CC6CC6)CC5)CC4)cc3OC)nc2N1C(C)C [Volasertib]
Combination effect with Compound A2 (Table 5) (MV4-11 (MLL-AF4) cells): Antagonstic

N[C@@H]1C[C@H]1c1ccccc1 (racemic) [Tranylcypromine]
Combination effect with Compound A2 (Table 4) (MOLM-13 (MLL-AF9) cells): Strong Synergy
Combination effect with Compound A2 (MOLM-13 (MLL-AF9) cells): synergy
Combination effect with Compound A2 (Table 4) (MV4-11 (MLL-AF4) cells): Synergy (Drug synergy was statistically defined by CI values less than 1)
Combination effect with Compound A2 (MV4-11 (MLL-AF4) cells): synergy

N.N.[Cl][Pt][Cl] [Cisplatin]
Summary of Combination Studies: MOLM-13 (MOLM-13 cells): Synergy (considered synergistic if the IC50 value of the second compound decreased by 2-fold or more when EPZ-5676 was added as compared to the DMSO control)

CC1(C)CCC(c2ccc(Cl)cc2)=C(CN2CCN(c3ccc(C(=O)NS(=O)(=O)c4ccc(N[C@H](CCN5CCOCC5)CSc5ccccc5)c(S(=O)(=O)C(F)(F)F)c4)cc3)CC2)C1 [Navitoclax]
Combination effect with Compound A2 (MOLM-13 (MLL-AF9) cells): synergy
Combination effect with Compound A2 (MV4-11 (MLL-AF4) cells): synergy

c1ccc([C@@H]2C[C@H]2NC2CCNCC2)cc1 [GSK-LSD1]
Summary of Combination Studies: MOLM-13 (MOLM-13 cells): Synergy (considered synergistic if the IC50 value of the second compound decreased by 2-fold or more when EPZ-5676 was added as compared to the DMSO control)

CC(C)(C)c1cc(NC(=O)Nc2ccc(-c3cn4c(n3)sc3cc(OCCN5CCOCC5)ccc34)cc2)no1 [Quizartinib]
Combination effect with Compound A2 (MV4-11 (MLL-AF4) cells): synergy

Cc1sc2c(c1C)C(c1ccc(Cl)cc1)=N[C@@H](CC(N)=O)c1nnc(C)n1-2 [CPI-203]
Summary of Combination Studies: MOLM-13 (MOLM-13 cells): Synergy (considered synergistic if the IC50 value of the second compound decreased by 2-fold or more when EPZ-5676 was added as compared to the DMSO control)
Summary of Combination Studies: SKM-1 (SKM-1 cells): Synergy (considered synergistic if the IC50 value of the second compound decreased by 2-fold or more when EPZ-5676 was added as compared to the DMSO control)

O=C1c2ccccc2-c2nc3nonc3nc21 [SMER 3]
Summary of Combination Studies: MOLM-13 (MOLM-13 cells): Synergy (considered synergistic if the IC50 value of the second compound decreased by 2-fold or more when EPZ-5676 was added as compared to the DMSO control)

O=c1cc(N2CCOCC2)oc2c(-c3cccc4c3sc3ccccc34)cccc12 [NU 7441]
Summary of Combination Studies: MOLM-13 (MOLM-13 cells): Synergy (considered synergistic if the IC50 value of the second compound decreased by 2-fold or more when EPZ-5676 was added as compared to the DMSO control)

O=C1c2c(O)ccc(O)c2C(=O)c2c(NCCNCCO)ccc(NCCNCCO)c21 [Mitoxantrone]
Combination effect with Compound A2 (MV4-11 (MLL-AF4) cells): Synergy (A combination index less than one indicates synergy)

CC(=O)OC[C@H]1O[C@@H]([S-])[C@H](OC(C)=O)[C@@H](OC(C)=O)[C@@H]1OC(C)=O.CCP(CC)CC.[Au+] [Auranofin]
Summary of Combination Studies: MOLM-13 (MOLM-13 cells): Synergy (considered synergistic if the IC50 value of the second compound decreased by 2-fold or more when EPZ-5676 was added as compared to the DMSO control)

CC(=O)O/N=C1\C(=O)N(Cc2cc(Cl)ccc2Cl)c2ccc(Cl)cc21 [LDN 57444]
Summary of Combination Studies: MOLM-13 (MOLM-13 cells): Synergy (considered synergistic if the IC50 value of the second compound decreased by 2-fold or more when EPZ-5676 was added as compared to the DMSO control)

CCCc1cc2c(N3CCN(C4=NCC(C)(C)S4)CC3)ncnc2s1 [Menin-MLL inhibitor MI-2]
Combination effect with Compound A2 (Table 4) (MOLM-13 (MLL-AF9) cells): Synergy (Drug synergy was statistically defined by CI values less than 1)
Combination effect with Compound A2 (Table 4) (MV4-11 (MLL-AF4) cells): Synergy (Drug synergy was statistically defined by CI values less than 1)

Cc1sc2c(c1C)C(c1ccc(Cl)cc1)=N[C@@H](CC(=O)OC(C)(C)C)c1nnc(C)n1-2 [JQ1]
Combination effect with Compound A2 (Table 4) (MOLM-13 (MLL-AF9) cells): Additive (additive effect by CI equal to 1)
Combination effect with Compound A2 (Table 2) (MOLM-13 (MLL-AF9) cells): Additive (additive effect by CI equal to 1)
Combination effect with Compound A2 (Table 4) (MV4-11 (MLL-AF4) cells): Additive (additive effect by CI equal to 1)
Combination effect with Compound A2 (Table 2) (MV4-11 (MLL-AF4) cells): Additive (additive effect by CI equal to 1)

Clc1ccc(C2(c3ccc(-c4cn[nH]c4)cc3)CCNCC2)cc1 [AT7867]
Summary of Combination Studies: MOLM-13 (MOLM-13 cells): Synergy (considered synergistic if the IC50 value of the second compound decreased by 2-fold or more when EPZ-5676 was added as compared to the DMSO control)

COc1ccc(C2=N[C@@H](c3ccc(Cl)cc3)[C@@H](c3ccc(Cl)cc3)N2C(=O)N2CCNC(=O)C2)c(OC(C)C)c1 [Nutlin-3]
Summary of Combination Studies: MOLM-13 (MOLM-13 cells): Synergy (considered synergistic if the IC50 value of the second compound decreased by 2-fold or more when EPZ-5676 was added as compared to the DMSO control)

Nc1ccccc1NC(=O)c1ccc(CNC(=O)OCc2cccnc2)cc1 [MS-275]
Summary of Combination Studies: MOLM-13 (MOLM-13 cells): Synergy (considered synergistic if the IC50 value of the second compound decreased by 2-fold or more when EPZ-5676 was added as compared to the DMSO control)

Cn1cncc1[C@@](N)(c1ccc(Cl)cc1)c1ccc2c(c1)c(-c1cccc(Cl)c1)cc(=O)n2C [Tipifarnib]
Combination effect with Compound A2 (Table 5) (MV4-11 (MLL-AF4) cells): Synergy (Drug synergy was statistically defined by CI values less than 1)

COc1cc2c(cc1-c1c(C)noc1C)ncc1[nH]c(=O)n([C@H](C)c3ccccn3)c12 [IBET-151]
Combination effect with Compound A2 (Table 2) (MOLM-13 (MLL-AF9) cells): Synergy (Drug synergy was statistically defined by CI values less than 1)
Combination effect with Compound A2 (MV4-11 (MLL-AF4) cells): Synergy (A combination index less than one indicates synergy)
Combination effect with Compound A2 (Table 2) (MV4-11 (MLL-AF4) cells): Synergy (Drug synergy was statistically defined by CI values less than 1)

Cc1cccc(-c2[nH]c(C(C)(C)C)nc2-c2ccc3c(c2)OCO3)n1 [SB-505124]
Summary of Combination Studies: MOLM-13 (MOLM-13 cells): Synergy (considered synergistic if the IC50 value of the second compound decreased by 2-fold or more when EPZ-5676 was added as compared to the DMSO control)

Cc1cc(Cl)cc(OCCn2cc(F)cn2)c1-c1nc(N)nc2c1CN(C(=O)NCC(C)(F)F)C2 [BEP800]
Summary of Combination Studies: MOLM-13 (MOLM-13 cells): Synergy (considered synergistic if the IC50 value of the second compound decreased by 2-fold or more when EPZ-5676 was added as compared to the DMSO control)

Nc1ncn([C@H]2C[C@H](O)[C@@H](CO)O2)c(=O)n1 [Decitabine]
Combination effect with Compound A2 (Table 2) (MOLM-13 (MLL-AF9) cells): Synergy (Drug synergy was statistically defined by CI values less than 1)
Combination effect with Compound A2 (Table 2) (MV4-11 (MLL-AF4) cells): Synergy (Drug synergy was statistically defined by CI values less than 1)
